Assay results from US20250170085A1, “TOPICAL FORMULATION TO DECREASE SKIN INFLAMMATION OR REDNESS” (University of Pittsburgh - Of the Commonwealth System of …, priority 2022, published 2025).

Columns and labels:
[1] = Patient-reported overall discomfort (eye irritation, cold sensation) after facial application of 5% w/w β-alanine cream with menthol; assay type: in vivo, human; conditions: for overall discomfort, scale 0 to 10: attributable to eye irritation and an unpleasant cold sensation
Description: (§1) FIGS. 2A and 2B show subjective patient-reported scoring for itch (FIG. 2A) and overall discomfort (FIG. 2B) of facially applied cream containing 5% w/w β-alanine and the indicated concentration of menthol. Each of the four formulations (0%, 0.5%, 1.0%, and 1.5% w/w menthol with 5% w/w f-alanine) were sequentially applied to different locations of a patient's cheek skin by a physician. Scoring was on a scale of 0 to 10, with 0 being no itch or discomfort and 10 being maximum itch or discomfort. Each symbol represents an individual patient (n=10). Bar height indicates the average value. Error bars represent +/−SEM. * P<0.05; ** P<0.01. P-values were calculated using a nonparametric ANOVA Kruskai-Wallis test.
(§2) A cohort of patients without inflammatory skin conditions (n=10) was given four different topical formulations for facial application. All four formulations contained 5% w/w β-alanine in Versapro® Cream (see, e.g., Example 1), however, each contained a different concentration of menthol (0.0%, 0.5%, 1.0%, and 1.5% w/w). A physician sequentially applied 0.1 ml of each formulation to distinct areas of the cheek with a 10 minute pause between each application. Patients were asked to rate the degree of itching and overall discomfort on a scale of 0 (no itching) to 10 (maximal itching) over the course of 5 minutes. The same process was repeated for the 0.5%, 1.0% and 1.5% w/w menthol containing formulations.

[2] = Patient-reported itching after facial application of 5% w/w β-alanine cream with menthol; assay type: in vivo, human
Description: as §1
as §2, with “The same process was repeated for the 0.5%, 1.0% and 1.5% w/w menthol containing formulations.” left out

[3] = Procedure: The four β-alanine formulations (0%, 2.5%, 5.0%, and 7.5% w/w β-alanine) were sequentially applied to a different location of each patient's cheek skin by a physician. Subjective scoring for itch (0 (none) to 10 (maximum itch)) was recorded over a 5-minute period. Symbols on the bar graph represent individual patients (n=16). Bar height indicates the average value. […] P-values were calculated using a nonparametric ANOVA Kruskai-Wallis test.
β-alanine powder (GNC, #369898) was mixed into Versapro® Cream at a concentration of 0%, 2.5%, 5.0% or 7.5% w/w. The ingredients of Versapro® Cream include water, aloe Barbadensis leaf juice, cyclopentasiloxane, disodium EDTA, emulsifying wax NF, ethylhexglyglycering, ethylhexyl stearate, phenoxyethanol, sorbitol, and tocopheryl acetate. The mixture was agitated until homogenous.
A cohort of patients without skin disease were selected for testing (n=16). Each patient had 0.1 ml of cream applied to cheek skin by a physician. Over the course of 5 minutes, the patients reported the intensity of pruritus (itching) on a scale of 0 (no itching) to 10 (maximal itching). The process was repeated for all four formulations (0%, 2.5%, 5.0% or 7.5% w/w β-alanine) using different areas of cheek skin. The efficacy of topical J3-alanine was determined based on the development of pruritus.

[4] = 0.5% w/w menthol in 5% w/w β-alanine cream

Row | SMILES | eye discomfort [1, 4] | overall discomfort, scale 0 to 10 ([1]; 1.0% w/w menthol in 5% w/w β-alanine cream) | overall discomfort, scale 0 to 10 ([1]; 1.5% w/w menthol in 5% w/w β-alanine cream) | intensity of itching [2, 4] | degree of itching, scale 0 to 10 ([2]; all concentrations of menthol (0.5%, 1.0%, 1.5% w/w) in 5% w/w β-alanine Versapro Cream, 0.1 ml on cheek, over 5 minutes, n=10) | intensity of pruritus (itching), scale 0 to 10 ([3]; 2.5% w/w β-alanine in Versapro Cream, 0.1 ml on cheek skin, over 5 minutes, patients without skin disease (n=16)) | duration of pruritus triggered by topical cream ([3]; topical β-alanine cream on cheek skin)
1 | CC1CCC(C(C)C)C(O)C1 (stereo not shown) [menthol, 5-methyl-2-(propan-2-yl)cyclohexan-1-ol] | without promoting eye discomfort | increased | increased | successfully decreased | notably reduced |  | 
2 | NCCC(=O)O [β-alanine, 3-aminopropanoic acid] |  |  |  |  |  | evident | less than 5 minutes
